# Assay results as given in PubChem BioAssay (NCI).
#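 Cells were grown in 96-well plates and exposed to each compound for 48 hours at five concentrations; endpoints were interpolated linearly between bracketing concentrations, or set to the highest concentration if not reached. TGI denotes the concentration required for complete inhibition of growth.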
# Columns and labels:
# Experiment in all cases: growth of human tumour cells (NCI), 48 h
# NCI-H460 lung = tested on: NCI-H460 lung
# SNB-19 CNS = tested on: SNB-19 CNS
# IGROV1 ovarian = tested on: IGROV1 ovarian
# NCI-H522 lung = tested on: NCI-H522 lung
# OVCAR-5 ovarian = tested on: OVCAR-5 ovarian
# U251 CNS = tested on: U251 CNS
# OVCAR-3 ovarian = tested on: OVCAR-3 ovarian
# UACC-62 melanoma = tested on: UACC-62 melanoma
# HOP-18 NSCLC = tested on: HOP-18 NSCLC
# SW-620 colon = tested on: SW-620 colon
# SK-OV-3 ovarian = tested on: SK-OV-3 ovarian
# SNB-75 CNS = tested on: SNB-75 CNS
# HCT-116 colon = tested on: HCT-116 colon
# TK-10 renal = tested on: TK-10 renal
# NCI-H23 lung = tested on: NCI-H23 lung
# OVCAR-8 ovarian = tested on: OVCAR-8 ovarian
# M14 melanoma = tested on: M14 melanoma
# UO-31 renal = tested on: UO-31 renal
# HT29 colon = tested on: HT29 colon
# RPMI-8226 leukemia = tested on: RPMI-8226 leukemia
# KM12 colon = tested on: KM12 colon
# A549 NSCLC = tested on: A549 NSCLC
# MALME-3M melanoma = tested on: MALME-3M melanoma
# LXFL 529 NSCLC = tested on: LXFL 529 NSCLC
# UACC-257 melanoma = tested on: UACC-257 melanoma
# SF-539 CNS = tested on: SF-539 CNS
# HCT-15 colon = tested on: HCT-15 colon
# SN12C renal = tested on: SN12C renal
# SNB-78 CNS = tested on: SNB-78 CNS
# EKVX NSCLC = tested on: EKVX NSCLC
# CCRF-CEM leukemia = tested on: CCRF-CEM leukemia
# HOP-92 NSCLC = tested on: HOP-92 NSCLC
# SF-295 CNS = tested on: SF-295 CNS
# DMS 273 small cell lung = tested on: DMS 273 small cell lung
# XF 498 CNS = tested on: XF 498 CNS
# M19-MEL melanoma = tested on: M19-MEL melanoma
# K-562 leukemia = tested on: K-562 leukemia
# MOLT-4 leukemia = tested on: MOLT-4 leukemia
# DMS 114 small cell lung = tested on: DMS 114 small cell lung
# SF-268 CNS = tested on: SF-268 CNS
# ACHN renal = tested on: ACHN renal
# RXF 393 renal = tested on: RXF 393 renal
# HL-60(TB) leukemia = tested on: HL-60(TB) leukemia
# HCC-2998 colon = tested on: HCC-2998 colon
# DLD-1 colon = tested on: DLD-1 colon
# SK-MEL-5 melanoma = tested on: SK-MEL-5 melanoma
# A498 renal = tested on: A498 renal
# KM20L2 colon = tested on: KM20L2 colon
# COLO 205 colon = tested on: COLO 205 colon
# 786-0 renal = tested on: 786-0 renal
# LOX IMVI melanoma = tested on: LOX IMVI melanoma
# SK-MEL-28 melanoma = tested on: SK-MEL-28 melanoma
# CAKI-1 renal = tested on: CAKI-1 renal
# SK-MEL-2 melanoma = tested on: SK-MEL-2 melanoma
# NCI-H226 lung = tested on: NCI-H226 lung
# OVCAR-4 ovarian = tested on: OVCAR-4 ovarian
# SR leukemia = tested on: SR leukemia
# HOP-62 NSCLC = tested on: HOP-62 NSCLC
compound,measurement,setting,value
NC(=S)/N=C/c1c(O)c2ccccc2oc1=O,TGI,NCI-H460 lung,> 100 µM
same,TGI,SNB-19 CNS,> 100 µM
same,TGI,IGROV1 ovarian,> 100 µM
same,TGI,NCI-H522 lung,> 100 µM
same,TGI,OVCAR-5 ovarian,> 100 µM
same,TGI,U251 CNS,> 100 µM
same,TGI,OVCAR-3 ovarian,> 100 µM
same,TGI,UACC-62 melanoma,> 100 µM
same,TGI,HOP-18 NSCLC,> 100 µM
same,TGI,SW-620 colon,> 100 µM
same,TGI,SK-OV-3 ovarian,> 100 µM
same,TGI,SNB-75 CNS,87 µM
same,TGI,HCT-116 colon,> 100 µM
same,TGI,TK-10 renal,> 100 µM
same,TGI,NCI-H23 lung,> 100 µM
same,TGI,OVCAR-8 ovarian,> 100 µM
same,TGI,M14 melanoma,> 100 µM
same,TGI,UO-31 renal,> 100 µM
same,TGI,HT29 colon,> 100 µM
same,TGI,RPMI-8226 leukemia,> 100 µM
same,TGI,KM12 colon,> 100 µM
same,TGI,A549 NSCLC,> 100 µM
same,TGI,MALME-3M melanoma,99.4 µM
same,TGI,LXFL 529 NSCLC,> 100 µM
same,TGI,UACC-257 melanoma,> 100 µM
same,TGI,SF-539 CNS,> 100 µM
same,TGI,HCT-15 colon,> 100 µM
same,TGI,SN12C renal,> 100 µM
same,TGI,SNB-78 CNS,> 100 µM
same,TGI,EKVX NSCLC,> 100 µM
same,TGI,CCRF-CEM leukemia,> 100 µM
same,TGI,HOP-92 NSCLC,> 100 µM
same,TGI,SF-295 CNS,> 100 µM
same,TGI,DMS 273 small cell lung,> 100 µM
same,TGI,XF 498 CNS,> 100 µM
same,TGI,M19-MEL melanoma,> 100 µM
same,TGI,K-562 leukemia,> 100 µM
same,TGI,MOLT-4 leukemia,> 100 µM
same,TGI,DMS 114 small cell lung,> 100 µM
same,TGI,SF-268 CNS,> 100 µM
same,TGI,ACHN renal,> 100 µM
same,TGI,RXF 393 renal,86.4 µM
same,TGI,HL-60(TB) leukemia,> 100 µM
same,TGI,HCC-2998 colon,> 100 µM
same,TGI,DLD-1 colon,> 100 µM
same,TGI,SK-MEL-5 melanoma,> 100 µM
same,TGI,A498 renal,> 100 µM
same,TGI,KM20L2 colon,> 100 µM
same,TGI,COLO 205 colon,> 100 µM
same,TGI,786-0 renal,> 100 µM
same,TGI,LOX IMVI melanoma,> 100 µM
same,TGI,SK-MEL-28 melanoma,> 100 µM
same,TGI,CAKI-1 renal,77.9 µM
same,TGI,SK-MEL-2 melanoma,97.3 µM
same,TGI,NCI-H226 lung,> 100 µM
same,TGI,OVCAR-4 ovarian,> 100 µM
C=CC1(C)CCC(C(C)C(=O)C(C=C(C)C)OC(C)=O)C12C(=O)Oc1ccccc1C2=O (stereo not given),TGI,NCI-H460 lung,> 100 µM
same,TGI,SNB-19 CNS,> 100 µM
same,TGI,IGROV1 ovarian,> 100 µM
same,TGI,NCI-H522 lung,> 100 µM
same,TGI,U251 CNS,> 100 µM
same,TGI,OVCAR-3 ovarian,> 100 µM
same,TGI,UACC-62 melanoma,> 100 µM
same,TGI,HOP-18 NSCLC,> 100 µM
same,TGI,SW-620 colon,> 100 µM
same,TGI,SK-OV-3 ovarian,> 100 µM
same,TGI,SNB-75 CNS,> 100 µM
same,TGI,HCT-116 colon,> 100 µM
same,TGI,TK-10 renal,> 100 µM
same,TGI,NCI-H23 lung,> 100 µM
same,TGI,OVCAR-8 ovarian,> 100 µM
same,TGI,M14 melanoma,> 100 µM
same,TGI,SR leukemia,> 100 µM
same,TGI,UO-31 renal,> 100 µM
same,TGI,HOP-62 NSCLC,> 100 µM
same,TGI,HT29 colon,> 100 µM
same,TGI,RPMI-8226 leukemia,68.2 µM
same,TGI,KM12 colon,> 100 µM
same,TGI,A549 NSCLC,> 100 µM
same,TGI,MALME-3M melanoma,> 100 µM
same,TGI,LXFL 529 NSCLC,> 100 µM
same,TGI,UACC-257 melanoma,> 100 µM
same,TGI,SF-539 CNS,> 100 µM
same,TGI,HCT-15 colon,> 100 µM
same,TGI,SN12C renal,> 100 µM
same,TGI,SNB-78 CNS,> 100 µM
same,TGI,EKVX NSCLC,> 100 µM
same,TGI,CCRF-CEM leukemia,> 100 µM
same,TGI,HOP-92 NSCLC,> 100 µM
same,TGI,SF-295 CNS,> 100 µM
same,TGI,DMS 273 small cell lung,> 100 µM
same,TGI,XF 498 CNS,> 100 µM
same,TGI,M19-MEL melanoma,> 100 µM
same,TGI,K-562 leukemia,> 100 µM
same,TGI,MOLT-4 leukemia,78.7 µM
same,TGI,DMS 114 small cell lung,> 100 µM
same,TGI,SF-268 CNS,> 100 µM
same,TGI,ACHN renal,> 100 µM
same,TGI,RXF 393 renal,> 100 µM
same,TGI,HL-60(TB) leukemia,64.6 µM
same,TGI,HCC-2998 colon,> 100 µM
same,TGI,DLD-1 colon,> 100 µM
same,TGI,KM20L2 colon,> 100 µM
same,TGI,COLO 205 colon,> 100 µM
same,TGI,786-0 renal,> 100 µM
same,TGI,LOX IMVI melanoma,> 100 µM
same,TGI,SK-MEL-28 melanoma,> 100 µM
same,TGI,SK-MEL-2 melanoma,> 100 µM
same,TGI,NCI-H226 lung,> 100 µM
same,TGI,OVCAR-4 ovarian,> 100 µM
